Source: patent US9532970B2, “Compositions for anti-inflammatory, antioxidant effects and improved respiratory function by specific histone deacetylase inhibition” (priority 2014, dated 2017)
Like-named read-outs stand apart in the source and are kept apart here.

Experiments:
H9c2 cells = settings: pre-treated with 10, 15 and 30 μM for 24 hours prior to 1 μM doxorubicin
HDAC-6 = biological target: T1, HDAC-6 (Homo sapiens, UniProt Q9UBN7)
T1 sequence (Q9UBN7 1-1215): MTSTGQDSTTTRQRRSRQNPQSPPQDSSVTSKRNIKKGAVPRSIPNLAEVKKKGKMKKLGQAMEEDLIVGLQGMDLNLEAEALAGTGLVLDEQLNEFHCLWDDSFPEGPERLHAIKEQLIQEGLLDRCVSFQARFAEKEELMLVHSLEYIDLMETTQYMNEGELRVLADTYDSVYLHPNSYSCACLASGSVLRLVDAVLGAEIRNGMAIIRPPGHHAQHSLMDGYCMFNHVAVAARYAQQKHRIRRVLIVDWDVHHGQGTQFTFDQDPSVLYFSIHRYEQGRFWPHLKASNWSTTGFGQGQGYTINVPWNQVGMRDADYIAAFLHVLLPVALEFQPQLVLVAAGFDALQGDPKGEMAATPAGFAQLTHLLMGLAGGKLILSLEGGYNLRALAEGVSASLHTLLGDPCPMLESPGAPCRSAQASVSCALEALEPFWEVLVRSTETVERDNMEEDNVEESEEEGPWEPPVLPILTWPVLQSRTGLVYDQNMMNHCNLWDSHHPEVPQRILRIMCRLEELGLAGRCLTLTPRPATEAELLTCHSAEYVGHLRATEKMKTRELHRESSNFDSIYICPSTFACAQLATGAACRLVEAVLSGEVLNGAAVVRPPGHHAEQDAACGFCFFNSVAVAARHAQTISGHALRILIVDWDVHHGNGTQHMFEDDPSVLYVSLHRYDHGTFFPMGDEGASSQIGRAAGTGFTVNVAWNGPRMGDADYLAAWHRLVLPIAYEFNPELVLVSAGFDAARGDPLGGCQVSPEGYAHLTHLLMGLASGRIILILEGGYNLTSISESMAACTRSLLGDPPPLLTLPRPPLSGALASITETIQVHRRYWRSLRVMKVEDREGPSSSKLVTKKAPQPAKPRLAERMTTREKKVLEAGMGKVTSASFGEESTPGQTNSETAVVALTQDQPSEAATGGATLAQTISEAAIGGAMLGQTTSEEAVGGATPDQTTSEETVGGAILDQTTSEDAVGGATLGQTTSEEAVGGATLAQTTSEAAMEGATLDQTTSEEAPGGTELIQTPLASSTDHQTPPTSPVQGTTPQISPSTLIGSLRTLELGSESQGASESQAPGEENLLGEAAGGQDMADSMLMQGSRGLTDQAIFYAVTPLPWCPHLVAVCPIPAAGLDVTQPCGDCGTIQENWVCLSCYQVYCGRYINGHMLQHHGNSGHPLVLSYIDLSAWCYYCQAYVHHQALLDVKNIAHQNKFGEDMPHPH

HDAC8 = HDAC8 (Homo sapiens, UniProt Q9BY41); test: biochemical
HDAC8, sequence (Q9BY41 whole entry, species assumed): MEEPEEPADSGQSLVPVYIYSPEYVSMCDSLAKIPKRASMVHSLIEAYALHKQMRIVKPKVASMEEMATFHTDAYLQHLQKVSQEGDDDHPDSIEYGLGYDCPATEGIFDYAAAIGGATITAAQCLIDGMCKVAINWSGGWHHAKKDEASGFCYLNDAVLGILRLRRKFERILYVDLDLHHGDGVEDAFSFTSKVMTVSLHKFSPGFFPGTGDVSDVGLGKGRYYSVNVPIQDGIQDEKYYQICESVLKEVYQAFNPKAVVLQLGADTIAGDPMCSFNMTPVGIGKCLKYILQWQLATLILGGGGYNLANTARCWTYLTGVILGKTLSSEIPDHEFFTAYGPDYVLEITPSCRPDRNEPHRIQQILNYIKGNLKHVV

C[S@@+]([O-])CCCCN=C=S [LSF, (R)-1-Isothiocyanato-4-(methylsulfinyl)butane]
doxorubicin-induced accumulation of γH2AX foci (H9c2 cells): attenuates
HILLSLOPE (HDAC-6; HDAC-6): −0.88
binding to HDAC 6 (in words) (HDAC-6; more subtle than Trichostatin A): specific binding
IC50 (HDAC8): 82.7 µM
NES (Horse PBMC; ENCODE TF target set GM12878RAD21 (r27)): −3.95
NES (Horse PBMC; ENCODE TF target set GM12878_RAD21 (r28)): −3.79
NES (Horse PBMC; ENCODE TF target set GM12878_YY1): 3.41
NES (Horse PBMC; ENCODE TF target set GM12878_ZBTB33 (r17)): 3.05
NES (Horse PBMC; ENCODE TF target set GM12878_ZBTB33 (r21)): 2.89
NES (Horse PBMC; ENCODE TF target set H1HESC_POL2 (r12)): 3.34
NES (Horse PBMC; ENCODE TF target set H1HESC_POL2 (r13)): 3.33
NES (Horse PBMC; ENCODE TF target set H1NEURONS_NRSF): 2.84
NES (Horse PBMC; ENCODE TF target set HEPG2_GRP20_FORSKLN): 3.01
NES (Horse PBMC; ENCODE TF target set HEPG2_ZBTB33 (r11)): 3.35
NES (Horse PBMC; ENCODE TF target set HEPG2_ZBTB33 (r14)): 3.23
NES (Horse PBMC; ENCODE TF target set K562_KAP1): 3.04
NES (Horse PBMC; ENCODE TF target set K562_STAT1_IFNA6H): −4.54
NES (Horse PBMC; ENCODE TF target set K562_STAT2_IFNA6H): −4.45
NES (Horse PBMC; ENCODE TF target set K562_TR4UCD): 3.13
NES (Horse PBMC; ENCODE TF target set K562_ZBTB33): 2.78
NES (Horse PBMC; ENCODE TF target set MCF10AES_STAT3): −3.75
NES (Horse PBMC; ENCODE TF target set SHSY5Y_GATA3): 3.13
NES (Horse PBMC; ENCODE TF target set SKNMC_POL2): 2.91
NES (Horse PBMC; ENCODE TF target set U2OS_SETDB1): 2.83
expression of CD markers, immunoglobulin containing genes and interleukins (Horse PBMC; LSF vs control): strongly down-regulated
pathways related to interferon signalling, STAT1/2 targets and autoimmune/auto-inflammatory diseases (Horse PBMC; LSF vs control): strongly downregulated
NES (Horse PBMC; MSigDB gene set ATGTTAA, MIR-302C): 4.19
NES (Horse PBMC; MSigDB gene set CHEN HOXA5 TARGETS 9HR UP): 4.3
NES (Horse PBMC; MSigDB gene set CTTGTAT, MIR-381): 4.1
NES (Horse PBMC; MSigDB gene set FULCHER INFLAMMATORY RESPONSE LECTIN VS LPS DN): −5.59
NES (Horse PBMC; MSigDB gene set GABRIELY MIR21 TARGETS): 3.8
NES (Horse PBMC; MSigDB gene set GCM DFFA): 4.6
NES (Horse PBMC; MSigDB gene set GCM MLL): 4.08
NES (Horse PBMC; MSigDB gene set GCM MYST2): 4.99
NES (Horse PBMC; MSigDB gene set GCM RAB10): 3.8
NES (Horse PBMC; MSigDB gene set GCM SUFU): 4.3
NES (Horse PBMC; MSigDB gene set GCM UBE2N): 4.65
NES (Horse PBMC; MSigDB gene set GCM ZNF198): 4.95
NES (Horse PBMC; MSigDB gene set GSE10239 NAIVE VS MEMORY CD8 TCELL UP): 4.2
NES (Horse PBMC; MSigDB gene set GSE10325 CD4 TCELL VS MYELOID DN): −6.35
NES (Horse PBMC; MSigDB gene set GSE10325 LUPUS BCELL VS LUPUS MYELOID DN): −6.47
NES (Horse PBMC; MSigDB gene set GSE10325 LUPUS CD4 TCELL VS LUPUS MYELOID DN): −7.15
NES (Horse PBMC; MSigDB gene set GSE11057 CD4 EFF MEM VS PBMC DN): −5.63
NES (Horse PBMC; MSigDB gene set GSE13485 CTRL VS DAY3 YF17D VACCINE PBMC DN): −5.66
NES (Horse PBMC; MSigDB gene set GSE13485 CTRL VS DAY7 YF17D VACCINE PBMC DN): −6.96
NES (Horse PBMC; MSigDB gene set GSE13485 DAY3 VS DAY7 YF17D VACCINE PBMC DN): −5.63
NES (Horse PBMC; MSigDB gene set GSE13485 DAY7 VS DAY21 YF17D VACCINE PBMC UP): −5.61
NES (Horse PBMC; MSigDB gene set GSE22866 NAIVE CD4 TCELL VS MONOCYTE DN): −5.6
NES (Horse PBMC; MSigDB gene set GSE24634 IL4 VS CTRL TREATED NAIVE CD4 TCELL DAY5 UP): −5.8
NES (Horse PBMC; MSigDB gene set GSE24634 TREG VS TCONV POST DAY10 IL4 CONVERSION DN): −5.97
NES (Horse PBMC; MSigDB gene set GSE29617 CTRL VS DAY3 TIV FLU VACCINE PBMC 2008 UP): 4.12
NES (Horse PBMC; MSigDB gene set GSE29618 BCELL VS MDC DAY7 FLU VACCINE DN): −5.93
NES (Horse PBMC; MSigDB gene set HAMAI APOPTOSIS VIA TRAIL UP): 5.42
